Experimental data from ChEMBL document CHEMBL3885881, “DrugMatrix”.

Species on record: Rattus norvegicus
Format: toxicity, organism-based, Sprague-Dawley
Details: in vivo, sc, 24 h, route mini-PUMP - SUBCUTANEOUS, time 1 day, vehicle 100 % SALINE; for ABSOLUTE EOSINOPHIL / ABSOLUTE LYMPHOCYTE / ABSOLUTE MONOCYTE / ABSOLUTE SEGMENTED NEUTROPHIL / BASOPHIL / EOSINOPHIL / ERYTHROCYTE COUNT / HEMATOCRIT / HEMOGLOBIN / LEUKOCYTE COUNT / LYMPHOCYTE / MEAN CORPUSCULAR HEMOGLOBIN / MEAN CORPUSCULAR HEMOGLOBIN CONCENTRATION / MEAN CORPUSCULAR VOLUME / MONOCYTE / NEUTROPHIL / NUCLEATED RED BLOOD CELLS / PLATELET COUNT: tissue Blood; for ALANINE AMINOTRANSFERASE / ALBUMIN / ALKALINE PHOSPHATASE / ASPARTATE AMINOTRANSFERASE / BLOOD UREA NITROGEN / CARBON DIOXIDE / CHLORIDE / CHOLESTEROL / CREATININE / GLUCOSE / LACTATE DEHYDROGENASE / LIPASE / PHOSPHORUS / POTASSIUM / SODIUM / TOTAL BILIRUBIN / TOTAL PROTEIN / URIC ACID: tissue Plasma
[1] = 0 mg/kg, vehicle control, dose level Control

Description: DrugMatrix - Regimen: Single

## NC[C@H](O)c1ccc(O)c(O)c1 [NOREPINEPHRINE]
[1]
  ABSOLUTE EOSINOPHIL: 26.17 CELLS/uL
  ABSOLUTE LYMPHOCYTE: 10985.83 CELLS/uL
  ABSOLUTE MONOCYTE: 234.5 CELLS/uL
  ABSOLUTE SEGMENTED NEUTROPHIL: 1753.5 CELLS/uL
  BASOPHIL: 0%
  EOSINOPHIL: 0.17%
  ERYTHROCYTE COUNT: 5.64 x10E6/uL
  HEMATOCRIT: 34.52%
  HEMOGLOBIN: 12.68 G/DL
  LEUKOCYTE COUNT: 13 x10E3/uL
  LYMPHOCYTE: 84.5%
  MEAN CORPUSCULAR HEMOGLOBIN: 22.5 pg
  MEAN CORPUSCULAR HEMOGLOBIN CONCENTRATION: 36.78 G/DL
  MEAN CORPUSCULAR VOLUME: 61.18 fL
  MONOCYTE: 1.83%
  NEUTROPHIL: 13.5%
  NUCLEATED RED BLOOD CELLS: 0.17 /100WBC
  PLATELET COUNT: 679.17 x10E3/uL
  ALANINE AMINOTRANSFERASE: 42.67 u/L
  ALBUMIN: 3.77 G/DL
  ALKALINE PHOSPHATASE: 291.17 u/L
  ASPARTATE AMINOTRANSFERASE: 74.5 u/L
  BLOOD UREA NITROGEN: 15.33 mg/dL
  CARBON DIOXIDE: 30 mmol/L
  CHLORIDE: 100.83 MEQ/L
  CHOLESTEROL: 65.33 mg/dL
  CREATININE: 0.15 mg/dL
  GLUCOSE: 179.83 mg/dL
  LACTATE DEHYDROGENASE: 162.67 u/L
  LIPASE: 8.5 u/L
  PHOSPHORUS: 12.2 mg/dL
  POTASSIUM: 5.73 MEQ/L
  SODIUM: 144.7 MEQ/L
  TOTAL BILIRUBIN: 0.15 mg/dL
  TOTAL PROTEIN: 5.87 G/DL
  URIC ACID: 1.93 mg/dL
1.75 mg/kg, dose level High
  ABSOLUTE EOSINOPHIL: 128.33 CELLS/uL
  ABSOLUTE LYMPHOCYTE: 11603.67 CELLS/uL
  ABSOLUTE MONOCYTE: 444.67 CELLS/uL
  ABSOLUTE SEGMENTED NEUTROPHIL: 3490 CELLS/uL
  BASOPHIL: 0%
  EOSINOPHIL: 1%
  ERYTHROCYTE COUNT: 6.6 x10E6/uL
  HEMATOCRIT: 39.53%
  HEMOGLOBIN: 14.47 G/DL
  LEUKOCYTE COUNT: 15.67 x10E3/uL
  LYMPHOCYTE: 74%
  MEAN CORPUSCULAR HEMOGLOBIN: 21.97 pg
  MEAN CORPUSCULAR HEMOGLOBIN CONCENTRATION: 36.6 G/DL
  MEAN CORPUSCULAR VOLUME: 60.07 fL
  MONOCYTE: 3%
  NEUTROPHIL: 22%
  NUCLEATED RED BLOOD CELLS: 0 /100WBC
  PLATELET COUNT: 1126 x10E3/uL
  ALANINE AMINOTRANSFERASE: 33 u/L
  ALBUMIN: 4.03 G/DL
  ALKALINE PHOSPHATASE: 413.33 u/L
  ASPARTATE AMINOTRANSFERASE: 77.33 u/L
  BLOOD UREA NITROGEN: 10.33 mg/dL
  CARBON DIOXIDE: 27.67 mmol/L
  CHLORIDE: 101 MEQ/L
  CHOLESTEROL: 102 mg/dL
  CREATININE: 0.12 mg/dL
  GLUCOSE: 268 mg/dL
  LACTATE DEHYDROGENASE: 247.67 u/L
  LIPASE: 9 u/L
  PHOSPHORUS: 14.8 mg/dL
  POTASSIUM: 6.26 MEQ/L
  SODIUM: 146.7 MEQ/L
  TOTAL BILIRUBIN: 0.13 mg/dL
  TOTAL PROTEIN: 6.4 G/DL
  URIC ACID: 3.1 mg/dL
